Experimental data taken from patent publication US20240218022A1, “ANTI-VISTA MACROCYCLIC PEPTIDES AND COMPOSITIONS” (BRISTOL-MYERS SQUIBB COMPANY, priority 2022, published 2024).
pIC50: −log10 of the molar value. Where two headings read alike, the source gives them in different places. Each block holds one compound with its values, some of them ahead of it. Starred links: 1 amine or outer side, 2 acyl side, 3 side chain; linkers in the order of their positions; H or OH if unused. Positions of bridges follow the written chain, without caps; N, C: chain ends. Non-standard residues stand in square brackets, D forms with d. Residues, ends and D or L forms follow the SMILES beside them. Phe(3-Me) = Cc1cccc(C[C@H](N)C(=O)O)c1; γGlu = O=C(O)[C@H](CCC(=O)[*:2])N[*:1]; 2Nal = N[C@@H](Cc1ccc2ccccc2c1)C(=O)O; Gly(cPent) = N[C@H](C(=O)O)C1CCCC1; Ahp(2) = CCCCC[C@H](N)C(=O)O; NMeNle = CCCC[C@H](NC)C(=O)O; Tle = CC(C)(C)[C@H](N)C(=O)O; NMeS = CN[C@@H](CO)C(=O)O; NHexGly = CCCCCCNCC(=O)O; Nle = CCCC[C@H](N)C(=O)O; Orn = NCCC[C@H](N)C(=O)O; Aun = NCCCCCCCCCCC(=O)O; AEEA = NCCOCCOCC(=O)O

Biological target: T1, mouse VISTA (mVISTA) (Mus musculus, UniProt Q9D659)
T1 construct: expressed in transfected cells; host or cells: Human embryonic kidney 293T cells
T1 sequence (Q9D659 33-308): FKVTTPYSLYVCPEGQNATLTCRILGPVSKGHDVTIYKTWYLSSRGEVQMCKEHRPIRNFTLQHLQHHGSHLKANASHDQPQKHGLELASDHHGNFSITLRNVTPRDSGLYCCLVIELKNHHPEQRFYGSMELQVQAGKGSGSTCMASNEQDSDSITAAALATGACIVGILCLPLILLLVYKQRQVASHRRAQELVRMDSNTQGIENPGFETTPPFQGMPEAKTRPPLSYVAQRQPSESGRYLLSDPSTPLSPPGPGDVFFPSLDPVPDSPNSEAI
Assay: Cell-Based Binding High-Content Assay For mVISTA (HC CBA mVISTA)
Method in brief: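 Competition of compound with a biotinylated peptide (final 2 nM, 30 min at RT) for binding to mVISTA on 293T cells, run under no-wash or wash (1 h compound preincubation then removal) formats. Readout by Alexa 647–streptavidin imaging on a high-content platform; four-parameter logistic fit gave IC50.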

pIC50 (read-out: HC CBA mVISTA IC50): 7.42
Compound: CCCCCCN1CC(=O)N[C@@H](Cc2ccc(O)cc2)C(=O)N[C@@H](CC(C)C)C(=O)N[C@@H](CC(N)=O)C(=O)N[C@@H](CCCNC(=N)N)C(=O)N(C)[C@@H](CO)C(=O)N[C@@H](CCCCC)C(=O)N2CCC[C@H]2C(=O)N[C@@H](C(C)(C)C)C(=O)N[C@@H](CO)C(=O)N[C@H](C(=O)NCCOCCOCC(=O)N[C@@H](CCC(=O)NCCOCCOCC(=O)NCCCCCCCCCCC(=O)O)C(=O)O)CSCC(=O)N[C@@H](Cc2ccccc2)C(=O)N[C@@H](Cc2c[nH]c3ccccc23)C(=O)N[C@@H](CC(=O)O)C1=O [compound 2266] ({CH2CO}-FWD[NHexGly]YLNR[NMeS][Ahp(2)]P[Tle]SC[AEEA][γGlu][AEEA][Aun]-OH; thioether N-14)

pIC50 (read-out: HC CBA mVISTA IC50): 7.80
Compound: CCCCCCN1CC(=O)N[C@@H](Cc2ccc(O)cc2)C(=O)N[C@@H](CCCC)C(=O)N[C@@H](CC(N)=O)C(=O)N[C@@H](CCCNC(=N)N)C(=O)N[C@@H](CC(C)C)C(=O)N[C@@H](C2CCCC2)C(=O)N2CCC[C@H]2C(=O)N[C@@H](C(C)C)C(=O)N[C@@H](CC(=O)O)C(=O)N[C@H](C(=O)NCC(=O)O)CSCC(=O)N[C@@H](Cc2ccc3ccccc3c2)C(=O)N[C@@H](Cc2c[nH]c3ccccc23)C(=O)N[C@@H](CC(=O)O)C1=O [compound 1181] ({CH2CO}-[2Nal]WD[NHexGly]Y[Nle]NRL[Gly(cPent)]PVDCG-OH; thioether N-14)

pIC50 (cell-based binding high-content assay, mVISTA, read-out: HC CBA miPr ISTA IC50): 7.98
Compound: CCCCCCN1CC(=O)N[C@@H](Cc2ccc(O)cc2)C(=O)N[C@@H](CCCC)C(=O)N[C@@H](CC(=O)O)C(=O)N[C@@H](CCCNC(=N)N)C(=O)N[C@@H](CC(C)C)C(=O)N[C@@H](CCCCC)C(=O)N2CCC[C@H]2C(=O)N[C@@H](C(C)C)C(=O)N[C@@H](CC(N)=O)C(=O)N[C@H](C(=O)NCC(=O)NCCOCCOCC(=O)N[C@@H](CC(=O)O)C(=O)NCCOCCOCC(=O)NCCCCCCCCCCC(=O)O)CSCC(=O)N[C@@H](Cc2ccccc2)C(=O)N[C@@H](Cc2ccc(O)cc2)C(=O)N[C@@H](CC(=O)O)C1=O [compound 2005] ({CH2CO}-FYD[NHexGly]Y[Nle]DRL[Ahp(2)]PVNCG[AEEA]D[AEEA][Aun]-OH; thioether N-14)

pIC50 (the 19th table, scaffold drawing 22, read-out: HC CBA mVISTA IC50): 7.99
Compound: CCCCCCN1CC(=O)N[C@@H](Cc2ccc(O)cc2)C(=O)N[C@@H](CCCCC)C(=O)N[C@@H](CC(N)=O)C(=O)N[C@@H](CCCNC(=N)N)C(=O)N(C)[C@@H](CCCC)C(=O)N[C@@H](CCCCC)C(=O)N2CCC[C@H]2C(=O)N[C@@H](C(C)C)C(=O)N[C@@H](CC(=O)O)C(=O)N[C@H](C(=O)NCC(=O)O)CSCC(=O)N[C@@H](Cc2cccc(C)c2)C(=O)N[C@@H](Cc2c[nH]c3ccccc23)C(=O)N[C@@H](CC(=O)O)C1=O [compound 1441] ({CH2CO}-[Phe(3-Me)]WD[NHexGly]Y[Ahp(2)]NR[NMeNle][Ahp(2)]PVDCG-OH; thioether N-14)

pIC50 (293T cells expressing mouse VISTA, competition with biotinylated peptide (2 nM), read-out: HC CBA mVISTA IC50): 7.46
Compound: CCCCCCN1CC(=O)N[C@@H](Cc2ccc(O)cc2)C(=O)N[C@@H](CC(C)C)C(=O)N[C@@H](CC(N)=O)C(=O)N[C@@H](CCCNC(=N)N)C(=O)N[C@@H](CC(C)C)C(=O)N[C@@H](CCCCC)C(=O)N2CCC[C@H]2C(=O)N[C@@H](C(C)C)C(=O)N[C@@H](CCCNC(=N)N)C(=O)N[C@H](C(=O)NCC(=O)O)CSCC(=O)N[C@@H](Cc2ccccc2)C(=O)N[C@@H](Cc2ccc(O)cc2)C(=O)N[C@@H](CC(=O)O)C1=O [Example 1030] ({CH2CO}-FYD[NHexGly]YLNRL[Ahp(2)]PVRCG-OH; thioether N-14)

pIC50 (cell-based binding high-content assay, mVISTA, read-out: HC CBA miPrISTA IC50): 7.56
Compound: CCCCCCN1CC(=O)N[C@@H](Cc2ccc(O)cc2)C(=O)N[C@@H](CC(C)C)C(=O)N[C@@H](CC(N)=O)C(=O)N[C@@H](CCCNC(=N)N)C(=O)N(C)[C@@H](CCCC)C(=O)N[C@@H](CCCCC)C(=O)N2CCC[C@H]2C(=O)N[C@@H](C(C)(C)C)C(=O)N[C@@H](CC(=O)O)C(=O)N[C@H](C(=O)N[C@@H](CCCN)C(=O)NCCOCCOCC(=O)N[C@@H](CC(=O)O)C(=O)NCCOCCOCC(=O)NCCCCCCCCCCC(=O)O)CSCC(=O)N[C@@H](Cc2ccccc2)C(=O)N[C@@H](Cc2ccc(O)cc2)C(=O)N[C@@H](CC(=O)O)C1=O [compound 2082] ({CH2CO}-FYD[NHexGly]YLNR[NMeNle][Ahp(2)]P[Tle]DC[Orn][AEEA]D[AEEA][Aun]-OH; thioether N-14)

pIC50 (read-out: HC CBA mVISTA IC50): 7.52
Compound: CCCCCCN1CC(=O)N[C@@H](Cc2ccc(O)cc2)C(=O)N[C@@H](CC(C)C)C(=O)NCC(=O)N[C@@H](CCCNC(=N)N)C(=O)N[C@@H](CC(C)C)C(=O)N[C@@H](CCCCC)C(=O)N2CCC[C@H]2C(=O)N[C@@H](C(C)C)C(=O)N[C@@H](CO)C(=O)N[C@H](C(=O)N[C@@H](CCC(=O)NCCCCCCCCCCC(=O)O)C(=O)O)CSCC(=O)N[C@@H](Cc2ccccc2)C(=O)N[C@@H](Cc2ccc(O)cc2)C(=O)N[C@@H](CC(=O)O)C1=O [Example 2128] ({CH2CO}-FYD[NHexGly]YLGRL[Ahp(2)]PVSC[γGlu][Aun]-OH; thioether N-14)
